In patent US8604217B2, “Compound, a process for its preparation, a pharmaceutical composition, use of a compound, a method for modulating or regulating serine/threonine kinases and a serine/threonine kinases modulating agent” (Selvita S.A., priority 2009, dated 2013) one finds IC50 data, which are given here for six molecules.

Read-outs that look alike come from different tables or passages of the source.

In one assay the target is PIM-1 (Homo sapiens (Human), UniProt P11309). Nature of the assay: Luminometric kinase assay for PIM1 kinase (Kinase-Glo). The format is biochemical. As to conditions: 1 μM ATP, 25 min at RT. In a few lines: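 Kinase and substrate reacted in 8 mM MOPS/NaOH pH7.0, 0.2 mM EDTA, 2 mM MgCl2 with 1 μM ATP for 25 min at RT, compounds serially diluted from 1 μM. Remaining ATP read by Kinase-Glo luminescence; IC50 from variable-slope sigmoidal fit.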

The test system of assay [1] is human chronic myelocytic leukemia K562 cells. Nature of the assay: Growth inhibition test (MTS) on K562 cells. The format is cell-based. Particulars: 72 hours, read-out: K562 ED50. The protocol:
(§1) Ten thousand cells of human chronic myelocytic leukemia K562 were inoculated into each well of a 96-well microplate (manufactured by Corning Corp.) using Iscove's MDM medium (culture medium) containing 10% fetal calf serum (FCS). Next day, a dimethyl sulfoxide (DMSO) solution of each test compound prepared in a concentration of 10 mmol/L was further diluted with culture medium to the desired concentrations (0.1, 0.5, 1, 2.5, 5 and 10 micromol/L), and the diluted solution was added to each well. The individual wells were further cultured in 5% carbon dioxide at 37° C. for 72 hours. After completion of the culture, 10 μl MTS (3-(4,5-Dimethyl-2-thiazolyl)-5-(carboxymethoxyphenyl)-2-(4-sulfophenyl)-2H-tetrazolium, inner salt assay (CellTiter96® AQueous One Solution Cell Proliferation Assay, Promega) was added to each well, and culturing was performed in 5% carbon dioxide at 37° C. for 2 hours. Using a microplate spectrophotometer (Synergy 2 multi-mode microplate reader (BioTek)), the absorbance of each well was measured at 490 nm. The value for cells not incorporated with a test compound was designated as 100%. By comparing these values with the absorbance difference obtained at the well in which each test compound was added, the cell viability (% viability) after treatment with the test compound was calculated.

Assay [2] has as its system human breast adenocarcinoma MCF7 cells. Nature of the assay: Growth inhibition test (MTS) on MCF7 cells. As to conditions: read-out: MCF-7 ED50. The format is cell-based. In a few lines: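 MCF7 cells seeded in DMEM with 10% FCS, dosed next day at 0.1–10 micromol/L (diluted from 10 mmol/L DMSO stock) and cultured 72 h at 37° C, 5% CO2. MTS added for 2 h, absorbance read at 490 nm; % viability calculated relative to untreated cells as 100%.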

Assay [3] deals with human colorectal adenocarcinoma SW480 cells. Nature of the assay: Growth inhibition test (MTS) on SW480 cells. The format is cell-based. As to conditions: read-out: SW480 ED50. The procedure:
as §1, with “Two” for “Ten”, “colorectal adenocarcinoma SW480” for “chronic myelocytic leukemia K562”, “Corp.), and” for “Corp.)”, “DMEM/Ham's F121:1” for “Iscove's MDM”, “5%” for “10%”

Assay [4] relates to human prostate adenocarcinoma PC3 cells. Description: Growth inhibition test (MTS) on PC3 cells. The format is cell-based. As to conditions: Homo sapiens, PC-3, 72 hours, read-out: PC-3 ED50.
Assay [5] relates to human hepatoma HepG2 cells. Description: Growth inhibition test (MTS) on HepG2 cells. The format is cell-based. As to conditions: 72 hours, read-out: HepG2 ED50. In a few lines: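 HepG2 cells in DMEM with 10% FCS were exposed for 72 h at 37 °C, 5% CO2, to 0.1, 0.5, 1, 2.5, 5 and 10 micromol/L compound. MTS was then added for 2 h and absorbance read at 490 nm. % viability was calculated relative to untreated cells set at 100%.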

The subject of assay [6] is human myelomonocytic, biphenotypic leukemia MV4-11 cells. Nature of the assay: Growth inhibition test (MTS) on MV4-11 cells. The format is cell-based. Particulars: Homo sapiens, MV4-11, 72 hours, read-out: MV-4-11 ED50. In a few lines: MV4-
The subject of assay [7] is human erytroblast leukemia HEL-92.1.7 cells. Description: Growth inhibition test (MTS) on HEL-92.1.7 cells. The format is cell-based. Particulars: 72 hours, read-out: HEL92 ED50. The protocol:
as §1, with “erytroblast” for “chronic myelocytic”, “HEL-92.1.7” for “K562”, “RPMI 1640” for “Iscove's MDM”

Sequence of PIM-1 (P11309 whole entry): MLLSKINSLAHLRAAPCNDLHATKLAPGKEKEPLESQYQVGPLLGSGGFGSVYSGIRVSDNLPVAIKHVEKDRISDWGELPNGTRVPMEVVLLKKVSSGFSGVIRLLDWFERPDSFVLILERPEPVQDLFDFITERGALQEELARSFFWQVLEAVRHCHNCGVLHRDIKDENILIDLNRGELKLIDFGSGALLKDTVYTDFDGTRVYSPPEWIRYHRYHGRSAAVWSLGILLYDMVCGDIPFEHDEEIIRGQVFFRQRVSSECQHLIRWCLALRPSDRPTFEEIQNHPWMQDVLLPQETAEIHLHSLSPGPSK

For `Brc1c(Br)c(Br)c2[nH]c(NCCN3CCCCC3)nc2c1Br` [Compound 13, 4,5,6,7-tetrabromo-N-(2-(piperidin-1-yl)ethyl)-1H-benzo[d]imidazol-2-amine], the IC50 turned out to be 0.319 µM on PIM-1; 3.72 µM in assay [1]; 3.65 µM in assay [2] (72 hours); 1.08 µM in assay [3] (72 hours); 3.86 µM in assay [4]; 2.54 µM in assay [5].

For `Brc1c(Br)c(Br)c2[nH]c(NCCN3CCCC3)nc2c1Br` [Compound 14, 4,5,6,7-tetrabromo-N-(2-(pyrrolidin-1-yl)ethyl)-1H-benzo[d]imidazol-2-amine], the IC50 worked out at 0.0578 µM at PIM-1; 3.59 µM in assay [1]; 7.76 µM in assay [2] (72 hours); 1.53 µM in assay [3] (72 hours); 3.96 µM in assay [4]; 2.12 µM in assay [5].

For the molecule `CN1CCN(c2nc3c(Br)c(Br)c(Br)c(Br)c3[nH]2)CC1` [Compound 21, 4,5,6,7-tetrabromo-2-(4-methylpiperazin-1-yl)-1H-benzo[d]imidazole], the IC50 on PIM-1 was found to be 0.0419 µM; in assay [1], 7.99 µM; in assay [3] (72 hours), 5.98 µM; in assay [5] it was 6.32 µM.

With `Brc1c(Br)c(Br)c2[nH]c(NCCCn3ccnc3)nc2c1Br` [Compound 65, N-(3-(1H-imidazol-1-yl)propyl)-4,5,6,7-tetrabromo-1H-benzo[d]imidazol-2-amine], the IC50 at PIM-1 was found to be 0.0227 µM; in assay [6] it was 3.46 µM; in assay [7], 8.37 µM; in assay [2] (Homo sapiens, MCF7, 72 hours), 8.22 µM; in assay [3] (72 hours) it was 6.92 µM; in assay [4] it was 7.45 µM.

In the case of `CN1CCN(C2CCN(c3nc4c(Br)c(Br)c(Br)c(Br)c4[nH]3)CC2)CC1` [Compound 385, 4,5,6,7-tetrabromo-2-(4-(4-methylpiperazin-1-yl)piperidin-1-yl)-1H-benzo[d]imidazole], the IC50 at PIM-1 was 0.0453 µM; in assay [6], 4.57 µM; in assay [7], 2.21 µM; in assay [2] (Homo sapiens, MCF7, 72 hours), 5.8 µM; in assay [4], 6.88 µM; in assay [5] it was 3.76 µM.

Turning to `Cc1nc2ccccn2c1CN1CCN(c2nc3c(Br)c(Br)c(Br)c(Br)c3[nH]2)CC1` [Compound 414, 4,5,6,7-tetrabromo-2-(4-((2-methyl-1H-imidazo[1,2-a]pyridin-3-yl)methyl)piperazin-1-yl)-1H-benzo[d]imidazole], the IC50 was 3.03 µM in assay [6]; 7.1 µM in assay [7]; 8.23 µM in assay [2] (Homo sapiens, MCF7, 72 hours); 4.32 µM in assay [3] (Homo sapiens, SW480, 72 hours); 8.94 µM in assay [4].
